# Reference: ChEMBL document CHEMBL3243975 (J Med Chem, 1978)
# Key:
# Sus scrofa [1] = species: Sus scrofa; test: Binding affinity to pig ileum opioid receptor; type: tissue-based
# Sus scrofa [2] = species: Sus scrofa; test: Agonist activity at pig ileum opioid receptor; type: tissue-based
# Rattus norvegicus [3] = species: Rattus norvegicus; test: Narcotic agonist activity in rat by writhing test; type: functional
# Mus musculus [4] = species: Mus musculus; test: Narcotic agonist activity in mouse by writhing test; type: functional
# Rattus norvegicus [5] = test: Narcotic antagonist activity in sc dosed rat assessed as inhibition of oxymorphone-induced straub tail effect; type: functional
# Mus musculus [6] = test: Narcotic antagonist activity in sc dosed mouse assessed as inhibition of oxymorphone-induced nacrosis; type: functional
# Rattus norvegicus [7] = species: Rattus norvegicus; test: Narcotic agonist activity in rat by hot plate test; type: functional
Compound,Ke (Sus scrofa [1]),ID50 (Sus scrofa [2]),ED50 (Rattus norvegicus [3]),ED50 (Mus musculus [4]),ED50 (Rattus norvegicus [5]),ED50 (Mus musculus [6]),ED50 (Rattus norvegicus [7])
O=C1CC[C@@]2(O)[C@H]3Cc4ccc(O)c5c4[C@@]2(CCN3CC2CCC2)[C@H]1O5,3 nM,60 nM,0.06 mg/kg,0.39 mg/kg,0.19 mg/kg,0.57 mg/kg,
O=C1CC[C@@]2(O)[C@H]3Cc4ccc(O)c5c4[C@@]2(CCN3CCc2ccccc2)[C@H]1O5,,,,,,,0.014 mg/kg
CN1CC[C@]23c4c5ccc(O)c4O[C@H]2[C@@H](O)C=C[C@H]3[C@H]1C5 [MORPHINE],,,0.26 mg/kg,0.8 mg/kg,,,
CC(C)=CCN1CC[C@]23c4c5ccc(O)c4O[C@H]2C(=O)CC[C@@]3(O)[C@H]1C5 [NALMEXONE],43 nM,400 nM,0.74 mg/kg,2 mg/kg,1.4 mg/kg,5.6 mg/kg,10.7 mg/kg
C=CCN1CC[C@]23c4c5ccc(O)c4O[C@H]2[C@@H](O)C=C[C@H]3[C@H]1C5 [NALORPHINE],,24.3 nM,1 mg/kg,,0.9 mg/kg,1.45 mg/kg,
C=CCN1CC[C@]23c4c5ccc(O)c4O[C@H]2C(=O)CC[C@@]3(O)[C@H]1C5 [NALOXONE],,,> 100 mg/kg,> 100 mg/kg,0.051 mg/kg,0.14 mg/kg,
O=C1CC[C@@]2(O)[C@H]3Cc4ccc(O)c5c4[C@@]2(CCN3CC2CC2)[C@H]1O5 [NALTREXONE],0.38 nM,> 850 nM,0.14 mg/kg,> 100 mg/kg,0.023 mg/kg,0.047 mg/kg,
CN1CC[C@]23c4c5ccc(O)c4O[C@H]2C(=O)CC[C@@]3(O)[C@H]1C5 [OXYMORPHONE],11.2 nM,12.1 nM,0.02 mg/kg,0.046 mg/kg,,,0.17 mg/kg
